Read-outs that look alike come from different tables or passages of the source.
Tests used:
Assay in all cases: 3D clonogenic assay (PDX)
RXF 1183 = format: cell-based; conditions: Homo sapiens, RXF 1183, Renal
Description: (§1) The anti-tumor efficacy of S1 in the patient-derived tumor xenograft (PDX) tumor panel was assessed, where the efficacy of S1 in PDX tumor panel in the 96-well format, in 10 concentrations in duplicate was performed. Colony formation of tumor cell suspensions in a soft-agar matrix was observed and quantified. The output is IC50 values and dose response-relationships based on number of colonies in control and treatment wells, as identified by an automated image analysis algorithm. Stock solution of S1 was prepared in 100% DMSO at 10 mM concentration (stored at -20°C) and reused for each experiment. Compound final test concentrations: Dilution series ½ i.e.: 50µM, 15, 5, 1.5, 0.5, 0.15, 0.05, 0.015, 0.005 and 0.0015.
(§2) Tumor xenografts (also referred to as patient-derived tumor xenografts) were passaged as subcutaneous xenografts in NMRI nu/nu mice. Tumor xenograft were removed from mice under sterile conditions, mechanically disaggregated and subsequently incubated with an enzyme cocktail consisting of collagenase type IV (41 U/mL), DNase I (125 U/mL), hyaluronidase type III (100 U/mL) and dispase II (1.0 U/mL) in RPMI 1640 medium at 37°C for 60 - 120 minutes. Cells were passed through sieves of 100 µm and 40 µm mesh size and washed with RPMI 1640 medium. The percentage of viable cells was determined in a Neubauer-hemocytometer using trypan blue exclusion. Aliquots of the cells were frozen down, and stored in liquid nitrogen.
(§3) The clonogenic assay test was carried out in 96 well plate format. For each test a frozen aliquot of tumor cells prepared from tumor xenografts was thawed and assay plates were prepared as follows: each test well contained 3 layers of equal volume, 2 layers of semi-solid medium (bottom and top layer), and one layer of medium supernatant, with or without test compound. The bottom layer consisted of 0.05 mL/well Iscove's Modified Dulbecco's Medium (Invitrogen), supplemented with 20% (v/v) fetal calf serum (Sigma), 0.01% (w/v) gentamicin (Invitrogen) and 0.75% (w/v) agar (BD Biosciences). Tumor cells were added to 0.05 mL of the same culture medium supplemented with 0.4% (w/v) agar and plated onto the bottom layer. After 24 h, test compounds were added after serial dilution in DMSO and transfer in cell culture medium, and left on the cells for the duration of the experiment (continuous exposure, 0.05 mL drug overlay). Every dish included six untreated control wells and drug-treated groups in duplicate at 10 concentrations. Cultures were incubated at 37 °C and 7.5% CO2 in a humidified atmosphere for 8 to 13 days and monitored closely for colony growth using an inverted microscope. Within this period, ex vivo tumor growth lead to the formation of colonies with a diameter of >50 µm. […]

MAXF 574 = format: cell-based; conditions: Homo sapiens, MAXF 574, Breast
Description: as §1, §2, §3

LXFL 1121 = format: cell-based, human; conditions: LXFL 1121, Lung Large Cell; for IC50: Homo sapiens
Summary of the method: (§4)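 PDX tumors from NMRI nu/nu mice were enzymatically dissociated into cell suspensions and plated in soft agar. After 24 h, cells received continuous exposure to 10 concentrations (50 µM down to 0.0015 µM, in duplicate) for 8–13 days at 37 °C. Colonies >50 µm were stained with INT tetrazolium and counted by automated imaging; IC50 values came from 4-parameter fits.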

PAXF 2094 = format: cell-based, human; conditions: PAXF 2094, Pancreas; for IC50: Homo sapiens
Summary of the method: as §4

GXF 214 = format: cell-based, human; conditions: GXF 214, Gastric; for IC50: Homo sapiens
Summary of the method: as §4

LXFA 1584 = format: cell-based, human; conditions: LXFA 1584, Lung Adeno; for IC50: Homo sapiens
Summary of the method: as §4

MEXF 1765 = format: cell-based, human; conditions: MEXF 1765, Melanoma; for IC50: Homo sapiens
Summary of the method: as §4

GXF 251 = format: cell-based, human; conditions: GXF 251, Gastric; for IC50: Homo sapiens
Summary of the method: as §4

LXFA 526 = format: cell-based, human; conditions: LXFA 526, Lung Adeno; for IC50: Homo sapiens
Summary of the method: as §4

GXF 1172 = format: cell-based, human; conditions: GXF 1172, Gastric; for IC50: Homo sapiens
Summary of the method: as §4

CXF 280 = format: cell-based, human; conditions: CXF 280, Colorectal; for IC50: Homo sapiens
Summary of the method: as §4

PRXF MRI-H-1579 = format: cell-based, human; conditions: PRXF MRI-H-1579, Prostate; for IC50: Homo sapiens
Summary of the method: as §4

BXF 1258 = format: cell-based, human; conditions: BXF 1258, Bladder; for IC50: Homo sapiens
Summary of the method: as §4

O[C@H](c1cc(-c2ccc(Cl)cc2)nc2ccccc12)[C@@H]1CCCCN1 [S1, (R)-(2-(4-chlorophenyl)quinolin-4-yl)((S)-piperidin-2-yl)methanol]
IC50 (RXF 1183; read-out: abs. IC50): 50 µM
IC50 (RXF 1183; read-out: rel. IC50): 50 µM
IC50 (MAXF 574; read-out: abs. IC50): 50 µM
IC50 (MAXF 574; read-out: rel. IC50): 50 µM
IC50 (LXFL 1121; read-out: abs. IC50): 8.66 µM
IC50 (LXFL 1121; read-out: rel. IC50): 8.61 µM
b (bottom plateau of concentration-effect curve) (LXFL 1121): 9
t (top plateau of concentration-effect curve) (LXFL 1121): 101
IC50 (PAXF 2094; read-out: abs. IC50): 8.88 µM
IC50 (PAXF 2094; read-out: rel. IC50): 8.64 µM
b (bottom plateau of concentration-effect curve) (PAXF 2094): 30
t (top plateau of concentration-effect curve) (PAXF 2094): 105
b (bottom plateau of concentration-effect curve) (GXF 214): 6
t (top plateau of concentration-effect curve) (GXF 214): 99
IC50 (GXF 214; read-out: abs. IC50): 4.92 µM
IC50 (GXF 214; read-out: rel. IC50): 4.89 µM
IC50 (LXFA 1584; read-out: abs. IC50): 7.81 µM
IC50 (LXFA 1584; read-out: rel. IC50): 6.79 µM
b (bottom plateau of concentration-effect curve) (LXFA 1584): 31
t (top plateau of concentration-effect curve) (LXFA 1584): 95
IC50 (MEXF 1765; read-out: abs. IC50): 8.58 µM
IC50 (MEXF 1765; read-out: rel. IC50): 8.53 µM
b (bottom plateau of concentration-effect curve) (MEXF 1765): 23
t (top plateau of concentration-effect curve) (MEXF 1765): 84
b (bottom plateau of concentration-effect curve) (GXF 251): 34
t (top plateau of concentration-effect curve) (GXF 251): 111
IC50 (GXF 251; read-out: abs. IC50): 6.02 µM
IC50 (GXF 251; read-out: rel. IC50): 5.26 µM
IC50 (LXFA 526; read-out: abs. IC50): 3.23 µM
IC50 (LXFA 526; read-out: rel. IC50): 2.91 µM
b (bottom plateau of concentration-effect curve) (LXFA 526): 10
t (top plateau of concentration-effect curve) (LXFA 526): 96
b (bottom plateau of concentration-effect curve) (GXF 1172): 28
t (top plateau of concentration-effect curve) (GXF 1172): 79
IC50 (GXF 1172; read-out: abs. IC50): 12.8 µM
IC50 (GXF 1172; read-out: rel. IC50): 12.5 µM
b (bottom plateau of concentration-effect curve) (CXF 280): 5
t (top plateau of concentration-effect curve) (CXF 280): 101
IC50 (CXF 280; read-out: abs. IC50): 8.65 µM
IC50 (CXF 280; read-out: rel. IC50): 8.62 µM
IC50 (PRXF MRI-H-1579; read-out: abs. IC50): 8.94 µM
IC50 (PRXF MRI-H-1579; read-out: rel. IC50): 8.76 µM
b (bottom plateau of concentration-effect curve) (PRXF MRI-H-1579): 21
t (top plateau of concentration-effect curve) (PRXF MRI-H-1579): 112
b (bottom plateau of concentration-effect curve) (BXF 1258): 44
t (top plateau of concentration-effect curve) (BXF 1258): 103
IC50 (BXF 1258; read-out: abs. IC50): 7.47 µM
IC50 (BXF 1258; read-out: rel. IC50): 2.54 µM

Source: patent publication EP3064205A1, “Therapeutic use of isomeric forms of 2-(4-chlorophenyl)quinolin-4-yl)(piperidin-2-yl)methanol” (Glionova AB, priority 2015, dated 2016)
